Four molecules from EP0955032A1, “COSMETIC” (Technoble Co., Ltd., priority 1996, dated 1997) can be followed below.

Data set [1] is described as follows: in vitro. Type of data set: cell-based. Particulars: rabbit, sirc-c cells. On the procedure: Cultured rabbit cornea cells (SIRC-C) were inoculated to a 96-well microplate (Corning Ltd.) at the rate of 5000 cells/well, and pre-incubated with Eagle's MEM containing 5% (v/v) FBS for one day under 5% CO2 at 37° C. Then 0.2ml of Eagle's MEM containing 0.05% neutral red was added to the culture medium and incubation was continued for two days under the same conditions. Furthermore, 2,5-diacetoxy benzoic acid was added to the culture medium at the concentrations of 0.025% (w/v) (10.5mM), 0.05% (w/v) (21mM), 0.1% (w/v) (42mM) or 0.2% (w/v) (84mM) and incubated again for two days under 5% CO 2 at 37° C.
For comparison, cultures with 30ug/ml, 60ug/ml or 90ug/ml of sodium dodecyl sulfate instead of 2,5-diacetoxy benzoic acid and without any compound were prepared and served as the positive control and the blank respectively.
The cultures were tested by analyzing SIRC-C neutral red intake, which is one of the alternative methods of eye-irritation test, and the midpoint cytotoxicity (NR50) value was derived from the neutral red intake rate to evaluate the potential irritation effect.
It is believed that, since the neutral red intake decreases with the increase in the irritation of the compound to SIRC-C, the higher the NR50 concentration of the sample solution, the lower the irritation to the cells.

In data set [2] the test system is B16 mouse melanoma cells. Briefly: Experiments 2 and 5: MTT test value (cell activity). As to conditions: for MTT value: Fig. 2, 2.5mM or 5mM DABA, 2.5mM DAPECSAM, two days, compared with DHBA cultures and blank. Type of data set: cell-based. The method, then:
(§1) Cultured B16 mouse melanoma cells were inoculated to a 96-well microplate (Corning Ltd.) at the rate of 8000 cells /well and pre-incubated in the Eagle's MEM containing 5% (v/v) FBS for one day under 5% CO2 at 37° C. After the pre-incubation, the culture medium was replaced with the Eagle's MEM containing 5% FBS, also containing 2.5mM or 5mM 2,5-diacetoxy benzoic acid or 2.5mM of 2-(2',5'-diacetoxy-benzoiloxy) benzoic acid, whereupon incubation was continued for two days under 5% CO2 at 37° C.
(§2) After the incubation, the medium was removed and a surfactant (Triton X-100) was mixed with the cells. Then 5mM of L-dopa or 0.2% of 3-(4,5-dimethylthiazol-2-yl)-2,5-diphenyltetrazorium bromide (MTT) was mixed for tyrosinase reaction at 37° C. Then the Dopa value and MTT test value were measured at the wavelength of 490nm and 570-630nm respectively using a microplate reader (Model 450, Bio Rad Ltd.).
(§3) For comparison, two series of culture with 2.5mM or 5mM of 2.5-dihydroxy benzoic acid instead of the compounds used in the present invention, as well as a culture without compound were prepared to serve as the positive controls and blank respectively.
(§4) It is believed that the higher the Dopa value, the higher the intracellular tyrosinase activity, while the lower the MTT test value, the lower the cultured B16 mouse melanoma cell activity.
(§5) The compound expressed by Formula A was used as an example of the 2,5-dihydroxy benzoic acid derivatives to evaluate its inhibitory effect on intracellular tyrosinase activity in accordance with the same protocol as followed in Experiment 2. [drawing 23]
(§6) However, the concentration was set to 2.5mM and the compound was dissolved in dimethyl sulfoxide before being applied to the culture medium.
(§7) The medium containing dimethyl sulfoxide was used for the blank culture. The results are shown in the graphs in Fig. 4 (Dopa levels) and Fig. 5 (MTT levels).
Background: Formazan colour is commonly taken as a measure of viable cells.

Data set [3] concerns the target T1, intracellular tyrosinase (Mus musculus, UniProt P11344).
T1 construct: endogenous in cells; host or cells: B16 mouse melanoma cells
T1 sequence (P11344 19-533): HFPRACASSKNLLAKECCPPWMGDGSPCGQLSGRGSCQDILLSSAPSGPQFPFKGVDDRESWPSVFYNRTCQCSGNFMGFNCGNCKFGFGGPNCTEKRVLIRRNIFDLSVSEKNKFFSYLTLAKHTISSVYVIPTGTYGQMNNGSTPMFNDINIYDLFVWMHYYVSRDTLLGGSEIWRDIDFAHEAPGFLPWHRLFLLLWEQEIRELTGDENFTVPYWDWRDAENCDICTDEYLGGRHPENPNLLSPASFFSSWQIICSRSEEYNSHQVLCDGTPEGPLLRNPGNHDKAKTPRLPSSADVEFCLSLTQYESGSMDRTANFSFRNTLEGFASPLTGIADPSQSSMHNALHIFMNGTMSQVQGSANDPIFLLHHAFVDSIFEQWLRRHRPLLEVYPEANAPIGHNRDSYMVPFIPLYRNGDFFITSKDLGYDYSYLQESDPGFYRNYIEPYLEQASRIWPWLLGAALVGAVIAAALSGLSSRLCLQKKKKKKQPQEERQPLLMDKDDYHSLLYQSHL
Description: Experiments 2 and 5: inhibition of intracellular tyrosinase activity (Dopa value). The data set is classed as cell-based. As to conditions: for Dopa value: Fig. 1, 2.5mM or 5mM DABA, 2.5mM DAPECSAM, two days, compared with blank and with DHBA at the same concentration. On the procedure:
as §1, §2, §3, §4, §5, §6, §7

In data set [4] the test system is T1-tyrosinase. Description: Experiment 1: SDS electrophoresis of intracellular tyrosinase isozymes (T1). The data set is classed as cell-based, mouse. Particulars: 5mM sample, three days; compared with blank culture. The method, then:
(§8) Cultured B16 mouse melanoma cells (6x10^4 cells) were inoculated to Eagle's minimum essential medium (MEM) containing 5% (v/v) of fetal bovine serum (FBS) and pre-incubated for one day under 5% CO2 at 37° C before 4 days incubation with 0.1% D-glucosamine under the same conditions. Then the culture medium was replaced with one that contained 50mM of adenosine 3',5'-cyclic phosphate (c-AMP) and 5mM of 2,5-acetoxy benzoic acid as the sample, and incubated under 5% CO2 for three days at 37° C.
(§9) For comparison, a separate series of incubation was conducted under the same conditions using the same culture medium without 2,5-diacetoxy benzoic acid, and served as a blank.
(§10) Then the culture samples were analyzed by SDS electrophoresis for detection of B16 mouse melanoma intracellular tyrosinase isozymes. The conditions of the electrophoresis were: gel = polyacrylamide gel (T=7.5% w/v, C=3% w/v); buffer solution = 0.025 M tris- 0.192 M glycine buffer solution (pH = 8.3) containing 0.1% (v/v) sodium dodecyl sulfate (SDS); amount of application = 20uL per well [the mixing ratio of the buffer A (38ml of 0.125M tris-HCl buffer, 10ml of glycerin, 2g of SDS and 3mg of bromphenol blue)/culture sample = 1/1]. The concentration of the sample was adjusted to 1600ug/ml.

Data set [5] relates to cyclooxygenase. Briefly: Experiment 3: inhibition of cyclooxygenase activity (oxygen consumption). Particulars: Fig. 3; 1.00ml of 5mM or 10mM solution; compared with blank (purified water). The data set is classed as biochemical. The method, then:
A mixture solution was prepared using 3.57ml of 0.2M tris-HCl buffer solution containing 20mM of L-tryptophan, 0.03ml of 40mM hemoglobin solution, 0.20ml of 400unit/ml cyclooxygenase solution, and 1.00ml of 5mM or 10mM 2.5-diacetoxy benzoic acid solution.
For comparison, a mixture using 1.00ml of purified water instead of 1.00ml of 2,5-diacetoxy benzoic acid was prepared to serve as a blank.
The mixture was incubated for five minutes at 37° C, and then 0.20ml of 0.2M tris-HCl buffer solution containing 2mM of arachidonic acid was added to the mixture for cyclooxygenase reaction. Immediately after the reaction started, the amount of dissolved oxygen in the reaction solution was measured using a biological oxygen monitor (YSI Model 5300, Meridian Instruments Far East, Ltd.). On the basis of the measurement of the dissolved oxygen level, the change in oxygen consumption attendant on the progress of the reaction time was determined.
It is believed that the less the oxygen consumption, the more the cyclooxygenase was inhibited.

Data set [6] deals with T3-tyrosinase. Description: Experiment 1: SDS electrophoresis of intracellular tyrosinase isozymes (T3). The data set is classed as cell-based, mouse. Particulars: 5mM sample, three days; compared with blank culture. On the procedure: as §8, §9, §10
Data set [7] concerns B16 mouse melanoma cells. Briefly: Experiment 1: gross observation of cell pellets after culture with sample. Type of data set: cell-based. Particulars: 5mM sample with 50mM c-AMP, three days; compared with blank culture. On the procedure:
as §8, §9
After the incubation, the cells were isolated from the medium by centrifugation and made into a pellet.

SMILES strings stand for the structures. In brackets after ≈: the same amount, converted by molar mass.

`CCCCCCCCCCCCOS(=O)(=O)[O-].[Na+]` [SDS, sodium dodecyl sulfate, reference compound]: the CC50 (in general, the concentration giving 50% cytotoxicity) at 48 h in data set [1] is ~60 µg/mL.

As to `COC(=O)c1ccccc1OC(=O)c1cc(OC(C)=O)ccc1OC(C)=O` [DAPECSAM, 2-(2'5'-diacetoxy-benzoiloxy) benzoic acid methyl ester], in data set [2], the MTT value entry is “not much lower”. Also, the Dopa value entry in data set [3] is listed as “much lower than that of the blank”.

For the molecule `CC(=O)Oc1ccc(OC(C)=O)c(C(=O)O)c1` [DABA, 2,5-diacetoxy benzoic acid], the “band of T1-tyrosinase” value in data set [4] is “significantly reduced”. In data set [2], the MTT value result is reported as “not much lower”. Also, the Dopa value entry in data set [3] is listed as “much lower than that of the blank”. Also, in data set [3] (within a concentration range that did not inhibit cell activity), the “inhibitory effect on intracellular tyrosinase compared with kojic acid and albutin” value was “the same or even higher”. In addition, the “increase in oxygen consumption attendant upon progress of reaction time” value in data set [5] is given as “much lower”. Further, in data set [6], the T3-tyrosinase band entry is “disappeared”. Besides, in data set [7], the “gross observation of pellets” value is listed as “significantly whitened”. The half-maximal cytotoxic concentration (CC50) at 48 h in data set [1] was 1000 to 2000 µg/mL (≈ 4.2 to 8.4 mM).

As for `COC(=O)c1ccccc1OC(=O)c1cc(OC(C)=O)ccc1OC(C)=O` [Formula A], the “cell activity (MTT levels)” value in data set [2] (Experiment 5, Fig. 5, 2.5mM, dissolved in dimethyl sulfoxide, blank with dimethyl sulfoxide) is “not the cell activity”. Further, the “intracellular tyrosinase activity (Dopa levels)” value in data set [3] (Experiment 5, Fig. 4, 2.5mM, dissolved in dimethyl sulfoxide, blank with dimethyl sulfoxide) is listed as “significantly inhibited”.
